According to patent US6630501B1, “Phosphinic pseudo-peptides that may be used as matrix zinc metalloprotease inhibitors” (Commissariat a l'energie Atomique, priority 1999, dated 2003):
pKi: −log10 of the molar value.

How the values were obtained:
[1] = molecular target: T1, MMP-11 (stromelysin-3, mST3) (Mus musculus, UniProt Q02853); assay: Ki determination with fluorogenic synthetic substrates, recombinant MMP-11; format: biochemical, murine; details: Tris/50 mM HCl buffer, pH 6.8, 10 mM CaCl2, 25° C.; read-out: affinity constant Ki, MMP-11 mST3
T1 construct: made in house; host or cells: E. coli
T1 sequence (Q02853 102-492): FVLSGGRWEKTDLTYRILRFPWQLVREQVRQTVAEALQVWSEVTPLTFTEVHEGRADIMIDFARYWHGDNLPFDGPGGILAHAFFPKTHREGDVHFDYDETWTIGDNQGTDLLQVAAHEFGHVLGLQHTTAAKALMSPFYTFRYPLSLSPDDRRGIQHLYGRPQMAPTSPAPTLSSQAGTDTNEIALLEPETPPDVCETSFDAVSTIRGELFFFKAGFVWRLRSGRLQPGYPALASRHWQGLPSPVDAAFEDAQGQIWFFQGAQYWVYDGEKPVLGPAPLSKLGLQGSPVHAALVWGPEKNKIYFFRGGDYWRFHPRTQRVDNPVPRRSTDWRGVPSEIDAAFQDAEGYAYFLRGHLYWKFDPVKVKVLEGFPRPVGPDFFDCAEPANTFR
Procedure: (§1) The MMPs used were produced in recombinant form, in an E. coli expression system, and then purified using different types of chromatographies. Apart from stromelysin-3 (MMP-11), the MMPs produces correspond to human sequences. The Stromelysin-3 used in this study corresponds to the murine form.
(§2) The activity of each MMP was determined using two fluorogenic synthetic substrates. The cutoff of said substrates, which generates a fluorescent signal proportional to the quantity of split substrate, enables a precise determination of the kinetic parameters. The affinity constants Ki were calculated using the equation of Horowitz et al, Proc. Natl. Acad. Sci. USA, 1987, 84, p. 6654-6658 [14], accounting for the dependency of the percentage of inhibition measured experimentally according to the concentration of inhibitor, as a function of the enzyme and substrate concentration.
(§3) The experiments for conducted in a Tris/50 mM HCl buffer, pH 6.8, 10 mM CaCl2, 25° C.

MMP-2 (Gel-A) = molecular target: T2, MMP-2 (Gel-A) (Homo sapiens, UniProt P08253); assay: Ki determination with fluorogenic synthetic substrates, recombinant MMP-2; format: biochemical; details: Tris/50 mM HCl buffer, pH 6.8, 10 mM CaCl2, 25° C.; read-out: affinity constant Ki, MMP-2 Gel-A
T2 construct: made in house; host or cells: E. coli
T2 sequence (P08253 110-660): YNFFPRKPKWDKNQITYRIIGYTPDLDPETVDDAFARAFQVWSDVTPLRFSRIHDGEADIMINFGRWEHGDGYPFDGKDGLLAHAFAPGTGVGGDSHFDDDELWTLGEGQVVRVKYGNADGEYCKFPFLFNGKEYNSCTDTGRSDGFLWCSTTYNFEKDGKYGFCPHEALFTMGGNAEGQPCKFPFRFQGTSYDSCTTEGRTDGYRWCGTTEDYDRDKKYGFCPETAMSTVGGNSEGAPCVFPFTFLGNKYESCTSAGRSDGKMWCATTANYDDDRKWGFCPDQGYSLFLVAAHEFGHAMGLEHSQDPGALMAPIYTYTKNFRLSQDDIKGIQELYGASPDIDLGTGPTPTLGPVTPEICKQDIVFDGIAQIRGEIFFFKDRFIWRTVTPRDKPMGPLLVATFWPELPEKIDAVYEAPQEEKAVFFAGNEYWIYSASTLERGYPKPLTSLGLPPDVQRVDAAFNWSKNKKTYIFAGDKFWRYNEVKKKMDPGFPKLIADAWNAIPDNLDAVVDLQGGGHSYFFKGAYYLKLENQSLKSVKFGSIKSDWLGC
Procedure: as §1, §2, §3

MMP-9 (Gel-B) = molecular target: T3, MMP-9 (Gel-B) (Homo sapiens, UniProt P14780); assay: Ki determination with fluorogenic synthetic substrates, recombinant MMP-9; format: biochemical; details: Tris/50 mM HCl buffer, pH 6.8, 10 mM CaCl2, 25° C.; read-out: affinity constant Ki, MMP-9 Gel-B
T3 construct: made in house; host or cells: E. coli
Procedure: as §1, §2, §3

MMP-14 (MT1-MMP) = molecular target: T4, MMP-14 (MT1-MMP) (Homo sapiens, UniProt P50281); assay: Ki determination with fluorogenic synthetic substrates, recombinant MMP-14; format: biochemical; details: Tris/50 mM HCl buffer, pH 6.8, 10 mM CaCl2, 25° C.; read-out: affinity constant Ki, MMP-14 MT1-MMP
T4 construct: made in house; host or cells: E. coli
Procedure: as §1, §2, §3

MMP-1 (HFC) = molecular target: T5, MMP-1 (HFC) (Homo sapiens, UniProt P03956); assay: Ki determination with fluorogenic synthetic substrates, recombinant MMP-1; format: biochemical; details: @ 2 mM inhibitor; listed as R I
T5 construct: made in house; host or cells: E. coli
T5 sequence (P03956 100-469): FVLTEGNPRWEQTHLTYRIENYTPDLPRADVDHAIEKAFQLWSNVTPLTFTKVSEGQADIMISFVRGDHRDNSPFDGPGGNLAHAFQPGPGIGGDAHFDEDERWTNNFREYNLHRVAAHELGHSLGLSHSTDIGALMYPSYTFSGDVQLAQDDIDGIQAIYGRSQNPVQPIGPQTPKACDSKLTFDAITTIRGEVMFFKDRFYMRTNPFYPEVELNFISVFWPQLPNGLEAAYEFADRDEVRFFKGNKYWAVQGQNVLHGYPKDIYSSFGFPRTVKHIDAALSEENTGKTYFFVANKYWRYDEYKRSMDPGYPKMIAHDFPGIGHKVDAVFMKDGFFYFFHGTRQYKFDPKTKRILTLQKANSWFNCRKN
Procedure: as §1, §2, §3

MMP-7 (Matrilysin) = molecular target: T6, MMP-7 (Matrilysin) (Homo sapiens, UniProt P09237); assay: Ki determination with fluorogenic synthetic substrates, recombinant MMP-7; format: biochemical; details: @ 20 mM inhibitor; listed as R I
T6 construct: made in house; host or cells: E. coli
T6 sequence (P09237 95-267): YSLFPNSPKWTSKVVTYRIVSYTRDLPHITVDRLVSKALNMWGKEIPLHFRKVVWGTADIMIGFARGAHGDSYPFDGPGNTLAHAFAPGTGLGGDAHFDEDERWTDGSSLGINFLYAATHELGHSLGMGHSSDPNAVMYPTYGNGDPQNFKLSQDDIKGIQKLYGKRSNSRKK
Procedure: as §1, §2, §3

MMP-8 (HNC) = molecular target: T7, MMP-8 (HNC) (Homo sapiens, UniProt P22894); assay: Ki determination with fluorogenic synthetic substrates, recombinant MMP-8; format: biochemical; details: Tris/50 mM HCl buffer, pH 6.8, 10 mM CaCl2, 25° C.; read-out: affinity constant Ki, MMP-8 HNC
T7 construct: made in house; host or cells: E. coli
Procedure: as §1, §2, §3

[2] = system: malignant murine C26 cells; assay: Tumorigenesis model: subcutaneous graft of malignant murine C26 cells in syngenic mice; format: in vivo; details: 150 μg of inhibitor/mouse/day, intraperitoneal
Procedure: The tumorigenesis model used to test the effect of said RXPO3 inhibitor in vivo consists of a subcutaneous graft of malignant murine C26 cells in syngenic mice (with a genetic background similar to that of the injected cells).
The C26 cells established from Balb c mouse colic cancer (Corbett et al., 1975, Cancer Res, 35:2434-2439 [15] are cultured until subconfluence. After trypsinisation, the cells are centrifuged at 1000 g for 10 minutes. The sediment is washed and resuspended in 1×PBS. A […] volume, containing 5×10^4 C26 cells, is injected subcutaneously at 2 sites on the back of 8 to 9-week old mice. The inhibitor is solubilised in 1× PBS and […] of inhibitor in a […] volume is administered by the intraperitoneal route. The treatment starts on the day of the injection of the C26 cells and continues at a rate of one injection a day for 25 days. The tumoral volumes are measured every day.
Three identical and independent tumorigenesis experiments were conducted, according to the protocol given above. The results obtained were similar. One of them is reported below.
The experiment related to 12 animals, 6 receiving a treatment (150 μg of inhibitor/mouse/day) and 6 used as controlled animals (150 μl 1×PBS).

T3 sequence (P14780 94-707): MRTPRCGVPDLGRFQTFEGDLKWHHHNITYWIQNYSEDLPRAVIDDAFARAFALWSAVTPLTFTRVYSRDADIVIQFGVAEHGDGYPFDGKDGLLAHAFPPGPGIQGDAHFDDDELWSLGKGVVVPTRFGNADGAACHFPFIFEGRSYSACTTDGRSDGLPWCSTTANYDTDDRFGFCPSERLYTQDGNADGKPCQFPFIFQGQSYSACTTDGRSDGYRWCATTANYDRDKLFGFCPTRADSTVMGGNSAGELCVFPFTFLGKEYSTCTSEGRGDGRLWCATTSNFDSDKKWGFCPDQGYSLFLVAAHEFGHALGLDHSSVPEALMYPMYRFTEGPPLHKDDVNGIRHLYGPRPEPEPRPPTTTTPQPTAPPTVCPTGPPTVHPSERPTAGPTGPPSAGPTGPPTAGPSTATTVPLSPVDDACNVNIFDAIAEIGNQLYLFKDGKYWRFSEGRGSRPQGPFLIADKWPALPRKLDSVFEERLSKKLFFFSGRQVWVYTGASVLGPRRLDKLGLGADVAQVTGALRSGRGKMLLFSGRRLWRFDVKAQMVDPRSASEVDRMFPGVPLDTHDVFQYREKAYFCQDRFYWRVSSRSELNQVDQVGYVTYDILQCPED
T7 sequence (P22894 101-467): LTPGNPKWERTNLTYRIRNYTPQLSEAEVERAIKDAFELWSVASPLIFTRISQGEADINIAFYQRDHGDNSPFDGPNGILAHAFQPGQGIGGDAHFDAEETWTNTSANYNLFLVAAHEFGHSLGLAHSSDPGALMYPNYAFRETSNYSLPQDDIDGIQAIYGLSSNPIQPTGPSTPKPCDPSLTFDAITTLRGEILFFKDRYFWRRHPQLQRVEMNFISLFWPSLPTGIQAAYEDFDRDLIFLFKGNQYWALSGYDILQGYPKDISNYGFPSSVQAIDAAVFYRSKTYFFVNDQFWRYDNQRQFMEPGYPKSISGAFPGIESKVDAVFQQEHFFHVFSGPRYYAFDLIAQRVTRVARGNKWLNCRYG

Compound `NC(=O)C(Cc1c[nH]c2ccccc12)NC(=O)C(CCCc1ccccc1)CP(=O)(O)C(Cc1ccccc1)NC(=O)OCc1ccccc1` (single isomer, unassigned) [Compound 15 R I, ZPheΨ(PO2CpH2)pPheTrpNH2] has a pKi [1] of 8.22, a pKi (MMP-2 (Gel-A)) of 7.27 and a pKi (MMP-9 (Gel-B)) of 7.38. The pKi (MMP-14 (MT1-MMP)) was 7.05, the “percentage of inhibition, MMP-1” value (MMP-1 (HFC)) was 18% @ 2 mM and the “percentage of inhibition, MMP-7” value (MMP-7 (Matrilysin)) was 44% @ 20 mM. The pKi (MMP-8 (HNC)) was 7.80, the “mean and median tumour volumes in treated versus control animals” value ([2]; Days 10 to 25) was “always lower” and the “difference in tumour size, treated versus control animals” value ([2]; day D15 to day D20, one injection a day for 25 days) was ~50%.
